Several values for one entry are separate records, joined by “and”; a condition that tells them apart may be missing. Equal values may be shown once.
Details: 303.16 K, Liquid, Vibrating tube method

CCCCCC(=O)OCC(COC(=O)CCCCC)(COC(=O)CCCCC)COC(=O)CCCCC [pentaerythritol tetrahexanoate]
Details | mass density
204.2 kPa | 988.5 kg/m3
207.1 kPa | 988.5 kg/m3
207.3 kPa | 988.5 kg/m3
207.8 kPa | 988.4 kg/m3
208 kPa | 988.5 kg/m3
208.2 kPa | 988.5 kg/m3
209 kPa | 988.5 kg/m3
209.2 kPa | 988.5 kg/m3
209.5 kPa | 988.6 kg/m3
209.7 kPa | 988.4 kg/m3
211.5 kPa | 988.5 kg/m3
211.8 kPa | 988.5 kg/m3
212.7 kPa | 988.4 kg/m3 and 988.5 kg/m3
212.9 kPa | 988.5 kg/m3
219.3 kPa | 988.6 kg/m3
220.1 kPa | 988.5 kg/m3
220.8 kPa | 988.6 kg/m3
221.2 kPa | 988.6 kg/m3 and 988.4 kg/m3 and 988.5 kg/m3
221.4 kPa | 988.6 kg/m3
221.5 kPa | 988.6 kg/m3
221.9 kPa | 988.5 kg/m3
222.2 kPa | 988.6 kg/m3
222.4 kPa | 988.5 kg/m3
222.8 kPa | 988.6 kg/m3
223.1 kPa | 988.5 kg/m3 and 988.4 kg/m3
223.3 kPa | 988.4 kg/m3
223.6 kPa | 988.5 kg/m3
223.8 kPa | 988.6 kg/m3
224 kPa | 988.4 kg/m3
224.1 kPa | 988.6 kg/m3
224.5 kPa | 988.4 kg/m3
225 kPa | 988.6 kg/m3
225.2 kPa | 988.4 kg/m3
225.7 kPa | 988.5 kg/m3
226 kPa | 988.4 kg/m3
226.6 kPa | 988.4 kg/m3 and 988.6 kg/m3
227.1 kPa | 988.5 kg/m3
227.3 kPa | 988.6 kg/m3 and 988.5 kg/m3
227.6 kPa | 988.5 kg/m3 and 988.4 kg/m3 and 988.6 kg/m3
231.4 kPa | 988.4 kg/m3
232 kPa | 988.5 kg/m3
232.1 kPa | 988.5 kg/m3
232.7 kPa | 988.5 kg/m3
233.9 kPa | 988.5 kg/m3
234 kPa | 988.5 kg/m3 and 988.6 kg/m3
234.2 kPa | 988.5 kg/m3
234.6 kPa | 988.5 kg/m3
234.9 kPa | 988.5 kg/m3
235.4 kPa | 988.6 kg/m3
235.6 kPa | 988.6 kg/m3
236 kPa | 988.5 kg/m3
236.1 kPa | 988.6 kg/m3
236.3 kPa | 988.5 kg/m3 and 988.6 kg/m3
236.8 kPa | 988.6 kg/m3 and 988.5 kg/m3
237.2 kPa | 988.5 kg/m3
237.5 kPa | 988.6 kg/m3
237.7 kPa | 988.5 kg/m3
238 kPa | 988.6 kg/m3 and 988.5 kg/m3
239.3 kPa | 988.5 kg/m3
239.4 kPa | 988.5 kg/m3
240 kPa | 988.5 kg/m3 and 988.6 kg/m3
240.3 kPa | 988.4 kg/m3
240.5 kPa | 988.5 kg/m3
240.8 kPa | 988.5 kg/m3
241.3 kPa | 988.5 kg/m3
241.5 kPa | 988.5 kg/m3
241.7 kPa | 988.5 kg/m3
242.2 kPa | 988.6 kg/m3
242.6 kPa | 988.5 kg/m3
242.7 kPa | 988.6 kg/m3
242.9 kPa | 988.6 kg/m3
243.3 kPa | 988.4 kg/m3
243.4 kPa | 988.5 kg/m3
